Assay results taken from article PMC6018554, “2-[2-(4-(trifluoromethyl)phenylamino)thiazol-4-yl]acetic acid (Activator-3) is a potent activator of AMPK” (Scientific Reports, 2018).

Columns and labels:
[1] = test system: human recombinant α1β1γ1 AMPK γ1 mutants (R70G, R152G); assay: In vitro kinase assay with mutant AMPK pulled down from HEK-293T cells; assay type: biochemical; settings: 30 nM Activator-3; γ1 R70G, R152G mutants
Procedure: (§1) A high binding Enzyme Immuno Assay (EIA) 96-well plate (Sigma: Cat# CLS3590) was coated with Acetyl CoA Carboxylase 2 (ACC: 175–271 amino acids) peptide, a direct substrate for AMPK, 100 ng per well (1:1000 ratio, Cat# 12–491, Upstate biotechnology) and incubated overnight at 25 °C. Reaction mixture was incubated at 30 °C for 2 h and reaction was stopped by washing the plate with 0.05% Tween 20 followed by incubation with pACC primary antibody and rabbit secondary antibody as described in cell based ELISA section. Assay buffer is composed of 10 mM DTT, 100 mM magnesium acetate, 50 μM ATP and 10 mM HEPES.
R70 and R152 residues in AMPK γ1 subunit (pDONR223-PRKAG1: purchased from addgene, cat# plasmid#23718) are mutated to glycine using overlapping extension PCR. Subsequently, the mutants were transferred into a triple tagged destination vector (Streptavidin, Flag and Biotin; SFB-pDEST) by using gateway cloning technology. The mutant DNA was transfected into HEK-293T cells using PEI following standard procedures. After 4 h of transfection, media was changed to DMEM containing 10% FBS. Cells were lysed in TENNS lysis buffer (20 mM Tris pH:8.0, 100 mM NaCl, 1 mM EDTA, 10 mM Na2H2P2O7, 10 mM NaF, 10 mM Na3VO4, 0.5% NP40) and subjected to pull down using streptavidin beads followed by biotin elution. To protect the protein from dephosphorylation, cells were treated with 500 μM AICAR prior to lysis. This purified protein was estimated by using nanodrop and taken for in vitro kinase assay to check whether Activator-3 is binding to the mutant AMPK or not, and the activity of the mutant protein was assessed by comparing with the wild type protein activity.

[2] = Human plasma protein binding; assay type: in vitro ADME; settings: data not shown
HSD fed diabetic rats = assay: HSD fed insulin resistant diabetic rats; assay type: in vivo, rat
Procedure: Approximately 100 mg of soleus muscle tissue was taken and lysed with RIPA lysis buffer. Lysates were resolved on 12% SDS–polyacrylamide gels and were transferred to PVDF membrane (Millipore, USA). Membrane was blocked with 5% nonfat milk in TRIS buffered saline (TBS; 10 mM TRIS (pH 8.0), 150 mM NaCl) for 1 hour and probed with primary antibody of interest: phospho-AMPK (Thr^172) (1:1000; Cell Signaling Technology, USA), phospho-ACC (Ser^79) (1:1000; Cell Signaling Technology, USA), total AMPK (1:1000; Cell Signaling Technology, USA), total ACC (1:1000; Cell Signaling Technology, USA), and total Actin (1:1000; Santa Cruz Biotechnology, USA). Subsequently, membranes were incubated with corresponding HRP-conjugated secondary antibodies. The chemiluminescence signals were captured on photographic films using an enhanced chemiluminescence (Thermo Scientific, USA).The loading controls of phospho-ACC and phospho-AMPK in Fig. 6J were probed in parallel gels.
Twelve weeks old healthy colony bred male Wistar rats, weighing about 150–200 grams were purchased from the animal research facility (Cadila Pharma limited, Ahmedabad, India) and maintained at the animal house of Institute of pharmacy (Nirma University, India). All the methods were carried out in accordance with the approved guidelines. Experimental protocol involving animals was reviewed and approved by the Animal Ethical Committee of Institute of Science, Nirma University, Ahmedabad, India (Protocol No. IS/FAC/14-1/021) Animals were maintained in polypropylene cages in a standard photoperiod (12 h light:12 h dark cycle) and temperature (27 ± 1 °C) controlled room with the provision of laboratory food (Gold Mohur feeds Ltd, New Delhi, India) and water ad libitum. Animals were segregated into three different experimental groups with 6 animals in each as follows: non-diabetic group with standard chow diet (control group, CD), Diabetic group with high sucrose diet (65%, treated group, HSD)[84] and HSD with AMPK Activator-3 treated group (10 mg/kg body weight of animal). Post HSD induction animals were treated with AMPK Activator-3 for 30 days.
Animals were subjected to an OGTT at a beginning of the treatment (0 day) and a day before the end of the experiment (30 day). OGTT was performed after 12 h of the fasting. Briefly, after fasting, animals were given a glucose load (2 g/kg) orally. Blood samples were collected from the animal tail vein at 0 min (before glucose administration) and at 15, 30, 60, 90 and 120 min after glucose administration. Glucose concentration was determined using a CareSensN blood glucose monitor and glucose strips. Area under the curve for glucose (AUCglucose) was calculated using the trapezoidal rule.
Approximately, 1 ml of the blood samples was collected from the retro-orbital plexus of the animals under the mild anesthesia using diethyl ether. Blood was then transferred to the microfuge tubes for separation of plasma and serum at 0 day (start of the treatment) and the last day of the experiment (30 day). Total cholesterol and triglycerides levels were estimated from plasma using a diagnostic kit from Accucare India Ltd according to the protocol mentioned by the manufacturer.
Plasma FFA was estimated using chloroform and triethyalanomine extraction method by measuring the absorbance at 440 nm. The stearic acid was used as standard fatty acid and detailed protocol was performed as mentioned[85],[86]. […]

[3] = test system: panel of 100 protein kinases; assay: Cell-free kinase panel (Kinexus), whole panel; assay type: biochemical; settings: 10 µM
Procedure: To determine whether Activator-3 affects the activity of any other protein kinases, we screened it in cell-free assays against a panel of 100 protein kinases (Kinexus, Canada). […] Three kinases, DDR1 (−79%), SRC (−71%) and ALK5 (−61%) were inhibited by Activator-3 by more than 50% at 10 µM.

[4] = target: T1, recombinant human AMPK α2β2γ3 (Homo sapiens, UniProt Q9UGI9); assay: In vitro AMP kinase assay (pACC ELISA), α2β2γ3; assay type: biochemical
T1 construct: purchased SignalChem; host or cells: baculovirus expression
T1 sequence (Q9UGI9 whole entry): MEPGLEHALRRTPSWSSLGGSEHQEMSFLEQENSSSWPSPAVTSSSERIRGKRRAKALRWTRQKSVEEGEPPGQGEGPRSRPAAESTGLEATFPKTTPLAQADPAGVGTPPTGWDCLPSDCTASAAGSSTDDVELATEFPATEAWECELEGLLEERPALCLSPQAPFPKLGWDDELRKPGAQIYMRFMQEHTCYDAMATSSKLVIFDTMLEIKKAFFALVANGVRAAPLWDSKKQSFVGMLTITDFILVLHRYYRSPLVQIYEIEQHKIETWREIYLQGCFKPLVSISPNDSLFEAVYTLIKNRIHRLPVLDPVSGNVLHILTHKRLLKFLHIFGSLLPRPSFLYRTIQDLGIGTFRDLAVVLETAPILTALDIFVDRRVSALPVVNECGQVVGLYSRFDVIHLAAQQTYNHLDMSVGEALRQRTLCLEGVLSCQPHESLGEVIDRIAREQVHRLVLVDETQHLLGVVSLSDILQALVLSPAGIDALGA
T1 sequence (P54646 whole entry partner): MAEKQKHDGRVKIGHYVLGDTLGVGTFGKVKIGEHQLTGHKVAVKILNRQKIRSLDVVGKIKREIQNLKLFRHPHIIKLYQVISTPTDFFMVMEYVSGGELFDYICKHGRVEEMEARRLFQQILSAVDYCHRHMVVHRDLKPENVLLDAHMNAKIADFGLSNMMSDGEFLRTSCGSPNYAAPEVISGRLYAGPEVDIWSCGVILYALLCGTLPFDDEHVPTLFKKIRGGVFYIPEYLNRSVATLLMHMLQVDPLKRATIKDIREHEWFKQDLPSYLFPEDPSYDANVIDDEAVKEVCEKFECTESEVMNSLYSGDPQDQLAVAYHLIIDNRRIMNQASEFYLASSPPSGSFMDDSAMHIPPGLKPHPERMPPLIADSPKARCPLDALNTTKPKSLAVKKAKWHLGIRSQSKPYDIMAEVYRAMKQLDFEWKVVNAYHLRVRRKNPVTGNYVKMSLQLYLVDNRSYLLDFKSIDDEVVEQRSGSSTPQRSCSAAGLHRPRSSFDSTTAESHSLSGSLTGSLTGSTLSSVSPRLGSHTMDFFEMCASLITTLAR
T1 sequence (O43741 whole entry partner): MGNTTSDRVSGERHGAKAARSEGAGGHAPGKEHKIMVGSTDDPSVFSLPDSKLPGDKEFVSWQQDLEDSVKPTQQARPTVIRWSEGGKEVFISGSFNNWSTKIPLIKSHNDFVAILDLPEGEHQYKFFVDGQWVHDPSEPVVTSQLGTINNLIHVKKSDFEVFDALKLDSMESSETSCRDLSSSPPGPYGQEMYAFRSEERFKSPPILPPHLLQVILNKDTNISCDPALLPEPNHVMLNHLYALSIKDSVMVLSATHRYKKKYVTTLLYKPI
Excerpt: Having observed the effect of Activator-3 on the activation of AMPK in cell based assays, we next examined whether Activator-3 could activate AMPK directly or not. […] The activity of recombinant human AMPK (α1β1γ1, α2β1γ1, α2β2γ2 and α2β2γ3) in the presence of vehicle was considered as 100%. The EC50 of Activator-3 for the activation of α1β1γ1, α2β1γ1 and α2β2γ2 isozymes were similar. However, the activity of Activator-3 against α2β2γ3 was marginally higher (Fig. 1C).
as §1

[5] = 10 mg/kg oral once a day, 30th day

- fraction unbound [2]: ~0.2
- increase of AMPK activity over 100 µM AMP alone ([4]; co-treatment Activator-3 and 100 µM AMP): > 30%
- EC50 ([4]; read-out: EC50 allosteric activation hα2β2γ3): ~4 nM
SMILES: O=C(O)Cc1csc(Nc2ccc(C(F)(F)F)cc2)n1 [Activator-3, 2-[2-(4-(trifluoromethyl)phenylamino)thiazol-4-yl]acetic acid]
- AMPK activity of mutant proteins vs wild type [1]: significant reduction
- glucose concentration in OGTT vs HSD group (HSD fed diabetic rats; [5]): significantly reduced
- plasma free fatty acid vs HSD group (HSD fed diabetic rats; [5]): significantly lower
- plasma total cholesterol vs HSD group (HSD fed diabetic rats; [5]): significantly lower
- HSD induced body weight gain (HSD fed diabetic rats; 10 mg/kg oral once a day, 30 days, p < 0.05): decreased
- phosphorylation of AMPK and ACC in soleus muscle (HSD fed diabetic rats; 10 mg/kg/day for 30 days, western blot): restored
- effect on kinase activity, majority of panel [3]: not affected
